Results on 57 compounds are retold here after patent EP4104902B1, “COMPOUNDS AND M[…] SAME” (priority 2020, dated 2021).

The structures appear in SMILES notation. pIC50: −log10 of the molar value. Some results are limits rather than exact numbers.

For the first assay, the system named is recombinant rabies virus 1088 strain expressing Gaussia Luciferase (GLuc) (1088/GLuc). The assay is classed as cell-based. To be noted: read-out: Anti-rabies activity.
Turning to `O=C(NCc1ccccc1)[C@]12NC[C@@H]3C[C@H]1CN(CCO)[C@H]2[C@@H]3CCc1ccccc1` (relative stereo) [IB-618], the pIC50 is > 5.30.
On to `CC(C)C[C@@H]1[C@@H]2[C@@H]3CN[C@@]1(C(=O)NCCc1ccccc1)C[C@@H]3CN2CC1CCCCC1` (relative stereo) [IF-711], for which the pIC50 was 4.52 to 5.00.
For `N=C(N)NCCCNC(=O)[C@]12NC[C@@H]3C[C@H]1CN(Cc1ccccc1)[C@H]2[C@@H]3Cc1cccc2ccccc12` (relative stereo) [IB-280], the pIC50 is 4.52 to 5.00.
On to `CC(C)CCNC(=O)[C@@]12C[C@@H]3CN(CCc4ccccc4)[C@@H]([C@@H]3CN1)[C@H]2Cc1ccc(O)cc1` (relative stereo) [IF-707], for which the pIC50 was > 5.30.
On to `CC(C)C[C@@H]1[C@@H]2[C@@H]3CN[C@@]1(C(=O)NCCO)C[C@@H]3CN2Cc1cccc2ccccc12` (relative stereo) [IF-604], for which the pIC50 is 4.52 to 5.00.
Consider `CC(C)CCNC(=O)[C@]12NC[C@@H]3C[C@H]1CN(CC(C)C)[C@H]2[C@@H]3Cc1ccc(O)cc1` (relative stereo) [IB-684], for which the pIC50 was 4.52 to 5.00.
With `CC(C)CCN1C[C@@H]2C[C@H]3CN[C@]2(C(=O)NCc2ccc(F)cc2)[C@@H]1[C@@H]3CC(C)C` (relative stereo) [IB-553], the pIC50 was > 5.30.
Regarding `CC(C)CC1C2C3C=NC1(C(=O)NCc1ccccc1)CC3CN2Cc1ccc(Cl)cc1` (stereo not shown) [IIF-83], the pIC50 is > 5.30.
For the compound `CC(C)CC1C2CNC3(C(=O)NCCC(N)=O)C(C2)CN(Cc2cccc4ccccc24)C13` (stereo not shown) [IB-520], the pIC50 is > 5.30.
Still for that read-out and setting: the result for `CC(C)CCNC(=O)[C@]12NC[C@@H]3C[C@H]1CN(CC(C)C)[C@H]2[C@@H]3CCc1ccccc1` (relative stereo) [IB-688] reads > 5.30; that for `CC(C)CCNC(=O)[C@@]12C[C@@H]3CN(CC4CCCCC4)[C@@H]([C@@H]3CN1)[C@H]2Cc1ccc(O)cc1` (relative stereo) [IF-709], 4.52 to 5.00; that for `O=C(NCc1cccc2ccccc12)C12CC3CN(Cc4ccccc4)C(C3CN1)C2Cc1ccccc1` (stereo not shown) [IF-805], 4.52 to 5.00.
Same read-out and setting: the value for `CCCCCCNC(=O)[C@]12NC[C@@H]3C[C@H]1CN(Cc1ccc(F)cc1)[C@H]2[C@@H]3Cc1ccc(O)cc1` (relative stereo) [IB-656] was > 5.30; that for `CCCCCCNC(=O)[C@@]12C[C@@H]3CN(CC(N)=O)[C@@H]([C@@H]3CN1)[C@H]2Cc1cccc2ccccc12` (relative stereo) [IF-110] was > 5.30.
`CC(C)C[C@@H]1[C@@H]2[C@@H]3CN[C@@]1(C(=O)NCCC(N)=O)C[C@@H]3CN2CCc1ccccc1` (relative stereo) [IF-699]: the pIC50 was 4.52 to 5.00.
On to `CC(C)CCN1C[C@H]2C[C@]3(C(=O)NCc4ccc(F)cc4)N=C[C@H]2[C@H]1[C@H]3Cc1ccccc1` (relative stereo) [IIF-327], for which the pIC50 is > 5.30.
As for `CC(C)CNC(=O)[C@]12NC[C@@H]3C[C@H]1CN(CCc1ccccc1)[C@H]2[C@@H]3CC(C)C` (relative stereo) [IB-760], the pIC50 is > 5.30.
With `CC(C)CCN1C[C@@H]2C[C@H]3CN[C@]2(C(=O)NCCO)[C@@H]1[C@@H]3CCc1ccccc1` (relative stereo) [IB-658], the pIC50 is 4.52 to 5.00.
For `CC(C)CCN1CC2CC3(C(=O)NCCc4ccccc4)NCC2C1C3CC(C)C` (stereo not shown) [IF-437], the pIC50 is 4.52 to 5.00.
`N=C(N)NCCCNC(=O)[C@@]12C[C@@H]3CN(Cc4cccc5ccccc45)[C@@H]([C@@H]3CN1)[C@H]2Cc1cccc2ccccc12` (relative stereo) [IF-390]: the pIC50 is 4.52 to 5.00.
Turning to `NC(=O)CN1C[C@@H]2C[C@H]3CN[C@]2(C(=O)NCc2cccc4ccccc24)[C@@H]1[C@@H]3Cc1cccc2ccccc12` (relative stereo) [IB-90], the pIC50 is > 5.30.
With `CC(C)CCNC(=O)[C@]12NC[C@@H]3C[C@H]1CN(CC(N)=O)[C@H]2[C@@H]3Cc1cccc2ccccc12` (relative stereo) [IB-103], the pIC50 is 4.52 to 5.00.
With `CC(C)CNC(=O)[C@]12NC[C@@H]3C[C@H]1CN(Cc1ccccc1)[C@H]2[C@@H]3CC(C)C` (relative stereo) [IB-4], the pIC50 is 4.52 to 5.00.
Same read-out and setting: the result for `Cc1ccc(CN2CC3CC4CNC3(C(=O)NCc3ccccc3)C2C4CC(C)C)cc1` (stereo not shown) [IB-867] reads 5.00 to 5.30.
Still for that read-out and setting: the result for `O=C(NCc1ccc(O)cc1)[C@]12NC[C@@H]3C[C@H]1CN(Cc1ccc(F)cc1)[C@H]2[C@@H]3Cc1ccccc1` (relative stereo) [IB-583] reads 4.52 to 5.00; that for `CC(C)CC1C2C3C=NC1(C(=O)NCc1ccccc1)CC3CN2Cc1ccc(C(C)(C)C)cc1` (stereo not shown) [IIF-95], > 5.30.
In the case of `O=C(NCCc1ccccc1)[C@@]12C[C@@H]3CN(Cc4cccc5ccccc45)[C@@H]([C@@H]3CN1)[C@H]2Cc1ccc(O)cc1` (relative stereo) [IF-708], the pIC50 was > 5.30.
The same measure, in the same setting: the result for `Cc1ccc(CN2CC3CC4CN(C(N)=O)C3(C(=O)NCc3ccccc3)C2C4CC(C)C)cc1` (stereo not shown) [IB-888] reads 4.52 to 5.00; that for `O=C(NCCO)[C@]12NC[C@@H]3C[C@H]1CN(CCc1ccccc1)[C@H]2[C@@H]3Cc1ccccc1` (relative stereo) [IB-640], > 5.30.
For the compound `Cc1ccc(CN2CC3CC4CN(C(=O)NCc5ccccc5)C3(C(=O)NCc3ccccc3)C2C4CC(C)C)cc1` (stereo not shown) [IB-889], the pIC50 is 5.00 to 5.30.
As for `CC(C)C[C@@H]1[C@@H]2[C@@H]3CN[C@@]1(C(=O)NCCO)C[C@@H]3CN2CC1CCCCC1` (relative stereo) [IF-606], the pIC50 is 4.52 to 5.00.
In the case of `NC(=O)CN1C[C@@H]2C[C@H]3CN[C@]2(C(=O)NCc2cccc4ccccc24)[C@@H]1[C@@H]3Cc1ccccc1` (relative stereo) [IB-82], the pIC50 is 4.52 to 5.00.
Consider `CC(C)CNC(=O)[C@]12NC[C@@H]3C[C@H]1CN(CCC(=O)O)[C@H]2[C@@H]3CO` (relative stereo) [IB-431], for which the pIC50 was 4.52 to 5.00.
In the case of `CC(C)CC[C@@H]1[C@@H]2CN[C@@]3(C(=O)NCc4ccc(O)cc4)[C@@H](C2)CN(Cc2ccc(F)cc2)[C@@H]13` (relative stereo) [IB-582], the pIC50 was 4.52 to 5.00.
Turning to `CC(C)CCNC(=O)[C@]12NC[C@@H]3C[C@H]1CN(Cc1ccccc1)[C@H]2[C@@H]3Cc1ccc(O)cc1` (relative stereo) [IB-678], the pIC50 was > 5.30.
With `CC(C)CC[C@@H]1[C@@H]2[C@@H]3CN[C@@]1(C(=O)NCCc1ccccc1)C[C@@H]3CN2CC1CCCCC1` (relative stereo) [IF-717], the pIC50 was > 5.30.
`CC(C)CC[C@@H]1[C@@H]2CN[C@@]3(C(=O)NCc4ccccc4)[C@@H](C2)CN(Cc2ccc(O)cc2)[C@@H]13` (relative stereo) [IB-786]: the pIC50 was 4.52 to 5.00.
For the compound `O=C(O)CCNC(=O)[C@]12NC[C@@H]3C[C@H]1CN(CC1CCCCC1)[C@H]2[C@@H]3Cc1cccc2ccccc12` (relative stereo) [IB-614], the pIC50 is 4.52 to 5.00.
As for `O=C(NCCc1ccccc1)[C@@]12C[C@@H]3CN(Cc4ccc(O)cc4)[C@@H]([C@@H]3CN1)[C@H]2Cc1cccc2ccccc12` (relative stereo) [IF-580], the pIC50 was 4.52 to 5.00.
As to `CC(C)CNC(=O)C12CC3CN(CCC(=O)O)C(C3CN1)C2Cc1ccc(O)cc1` (stereo not shown) [IF-455], the pIC50 was 4.52 to 5.00.
Regarding `CC(C)C[C@@H]1[C@@H]2[C@@H]3CN[C@@]1(C(=O)NCc1ccccc1)C[C@@H]3CN2CCc1ccccc1` (relative stereo) [IF-639], the pIC50 is > 5.30.
For `CC(C)CCN1C[C@H]2C[C@]3(C(=O)NCc4cccc5ccccc45)NC[C@H]2[C@H]1[C@H]3Cc1ccc(O)cc1` (relative stereo) [IF-706], the pIC50 was > 5.30.
As for `CC(C)CN1C[C@@H]2C[C@H]3CN[C@]2(C(=O)NCCc2ccccc2)[C@@H]1[C@@H]3Cc1ccc(O)cc1` (relative stereo) [IB-536], the pIC50 was 4.52 to 5.00.
For `CC(C)C[C@@H]1[C@@H]2CN[C@@]3(C(=O)NCc4ccc(O)cc4)[C@@H](C2)CN(CCc2ccccc2)[C@@H]13` (relative stereo) [IB-449], the pIC50 is 4.52 to 5.00.
On the same count and under the same terms, the result for `O=C(NCc1ccc(O)cc1)[C@@]12C[C@@H]3CN(Cc4ccc(F)cc4)[C@@H]([C@@H]3CN1)[C@H]2Cc1ccccc1` (relative stereo) [IF-481] reads 4.52 to 5.00; that for `NC(=O)CN1C[C@H]2C[C@]3(C(=O)NCc4ccc(F)cc4)NC[C@H]2[C@H]1[C@H]3Cc1cccc2ccccc12` (relative stereo) [IF-97], 4.52 to 5.00; that for `CC(C)C[C@@H]1[C@@H]2CN[C@@]3(C(=O)NCc4ccc(O)cc4)[C@@H](C2)CN(Cc2ccccc2)[C@@H]13` (relative stereo) [IB-464], > 5.30.
Consider `CC(C)CNC(=O)C12NCC3CC1CN(CC1CCCCC1)C2C3CCC(=O)O` (stereo not shown) [IB-510], for which the pIC50 was 4.52 to 5.00.
Regarding `CC(C)C[C@@H]1[C@@H]2CN[C@@]3(C(=O)NCCO)[C@@H](C2)CN(Cc2ccc(F)cc2)[C@@H]13` (relative stereo) [IB-650], the pIC50 is 4.52 to 5.00.
In the case of `CC(C)NC(=O)[C@@]12C[C@@H]3CN(Cc4ccc(F)cc4)[C@@H]([C@@H]3CN1)[C@H]2CCCNC(=N)N` (relative stereo) [IF-274], the pIC50 is 4.52 to 5.00.
Take `O=C(O)CCNC(=O)C12NCC3CC1CN(Cc1ccc(F)cc1)C2C3Cc1cccc2ccccc12` (stereo not shown) [IB-384]: the pIC50 was 4.52 to 5.00.
With `CC(C)CNC(=O)[C@]12NC[C@@H]3C[C@H]1CN(Cc1cccc4ccccc14)[C@H]2[C@@H]3CC(C)C` (relative stereo) [IB-762], the pIC50 is > 5.30.
On to `O=C(NCc1ccccc1)[C@@]12C[C@@H]3CN(CCc4ccccc4)[C@@H]([C@@H]3CN1)[C@H]2Cc1ccc(O)cc1` (relative stereo) [IF-640], for which the pIC50 is 4.52 to 5.00.
`O=C(NCCc1ccccc1)[C@@]12C[C@@H]3CN(CCO)[C@@H]([C@@H]3CN1)[C@H]2Cc1cccc2ccccc12` (relative stereo) [IF-610]: the pIC50 was 4.52 to 5.00.
For `O=C(O)CCC1C2CNC3(C(=O)NCc4cccc5ccccc45)C(C2)CN(CCO)C13` (stereo not shown) [IB-425], the pIC50 is 4.52 to 5.00.
Consider `CC(C)C[C@@H]1[C@@H]2CN[C@@]3(C(=O)NCc4cccc5ccccc45)[C@@H](C2)CN(CC(N)=O)[C@@H]13` (relative stereo) [IB-81], for which the pIC50 was 4.52 to 5.00.
`CC(C)CNC(=O)[C@]12NC[C@@H]3C[C@H]1CN(CC(C)C)[C@H]2[C@@H]3CCc1ccccc1` (relative stereo) [IB-633]: the pIC50 was > 5.30.

Staying with this assay, now noted: read-out: IC50.
Regarding `CC(C)CNC(=O)[C@]12NC[C@@H]3C[C@H]1CN(Cc1ccccc1)[C@H]2[C@@H]3CC(C)C` (relative stereo) [IB-4], the pIC50 is 4.72.
